Measured values: US20090036485A1, “Quinoline derivatives” (priority 2004, published 2009)
pIC50: −log10 of the molar value.

Columns and labels:
PDGFRβ tyrosine kinase = molecular target: T1, PDGFRβ tyrosine kinase (Homo sapiens, UniProt P09619); assay: In vitro enzyme assay (ELISA), PDGFRβ tyrosine kinase; format: biochemical
T1 construct: PDGFRα, PDGFRβ and KDR receptor cytoplasmic domains, obtained by expression of recombinant protein in insect cells; purchased Upstate Biotechnology Inc. 14-463; host or cells: Sf9 insect cells
T1 sequence (P09619 554-1106 limits assumed): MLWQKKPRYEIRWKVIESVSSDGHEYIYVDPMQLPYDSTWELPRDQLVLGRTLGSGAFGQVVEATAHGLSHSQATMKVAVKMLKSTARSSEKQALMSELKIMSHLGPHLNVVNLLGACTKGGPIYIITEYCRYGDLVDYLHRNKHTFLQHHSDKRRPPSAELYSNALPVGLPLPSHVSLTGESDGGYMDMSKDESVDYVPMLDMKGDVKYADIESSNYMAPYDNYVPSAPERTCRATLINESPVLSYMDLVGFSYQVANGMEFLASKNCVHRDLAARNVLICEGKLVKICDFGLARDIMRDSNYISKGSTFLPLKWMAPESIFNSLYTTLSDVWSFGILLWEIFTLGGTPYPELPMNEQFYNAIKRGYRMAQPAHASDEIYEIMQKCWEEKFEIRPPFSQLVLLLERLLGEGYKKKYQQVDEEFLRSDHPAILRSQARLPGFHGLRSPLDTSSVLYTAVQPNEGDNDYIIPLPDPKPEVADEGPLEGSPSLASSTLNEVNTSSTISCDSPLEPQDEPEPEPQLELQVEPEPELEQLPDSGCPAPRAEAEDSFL
Experimental: (§1) The excess of substrate solution was discarded and the wells were washed in turn with PBS containing 0.05% v/v Tween 20 (PBST; 300 μl/well) and twice with Hepes pH7.4 buffer (50 mM, 300 μl/well) before being blotted dry.
Aliquots (25 μl) of each dilution of test compound were transferred to wells in the washed assay plates. “Maximum” control wells contained diluted DMSO instead of compound. Aliquots (25 μl) of an aqueous manganese chloride solution (40 mM) containing adenosine-5′-triphosphate (ATP) was added to all test wells except the “blank” control wells which contained magnesium chloride without ATP.
Each kinase enzyme was diluted immediately prior to use with an enzyme diluent comprising 100 mM Hepes pH7.4 buffer, 0.1 mM sodium orthovanadate, 0.1% Triton X-100 and 0.2 mM dithiothreitol. Aliquots (50 μl) of freshly diluted enzyme were added to each well and the plates were agitated at ambient temperature for 20 minutes. […] The plates were agitated at ambient temperature for about 20 minutes until the optical density value of the “maximum” control wells, as measured at 405 nm using a plate reading spectrophotometer, was approximately 1.0.

PDGFRα tyrosine kinase = molecular target: T2, PDGFRα tyrosine kinase (Homo sapiens, UniProt P16234); assay: In vitro enzyme assay (ELISA), PDGFRα tyrosine kinase; format: biochemical; conditions: Test (a); ATP 14 μM; read-out: IC50 versus PDGFRα tyrosine kinase
T2 construct: PDGFRα, PDGFRβ and KDR receptor cytoplasmic domains, obtained by expression of recombinant protein in insect cells; purchased Upstate Biotechnology Inc. 14-467; host or cells: Sf9 insect cells
T2 sequence (P16234 550-1089 limits assumed): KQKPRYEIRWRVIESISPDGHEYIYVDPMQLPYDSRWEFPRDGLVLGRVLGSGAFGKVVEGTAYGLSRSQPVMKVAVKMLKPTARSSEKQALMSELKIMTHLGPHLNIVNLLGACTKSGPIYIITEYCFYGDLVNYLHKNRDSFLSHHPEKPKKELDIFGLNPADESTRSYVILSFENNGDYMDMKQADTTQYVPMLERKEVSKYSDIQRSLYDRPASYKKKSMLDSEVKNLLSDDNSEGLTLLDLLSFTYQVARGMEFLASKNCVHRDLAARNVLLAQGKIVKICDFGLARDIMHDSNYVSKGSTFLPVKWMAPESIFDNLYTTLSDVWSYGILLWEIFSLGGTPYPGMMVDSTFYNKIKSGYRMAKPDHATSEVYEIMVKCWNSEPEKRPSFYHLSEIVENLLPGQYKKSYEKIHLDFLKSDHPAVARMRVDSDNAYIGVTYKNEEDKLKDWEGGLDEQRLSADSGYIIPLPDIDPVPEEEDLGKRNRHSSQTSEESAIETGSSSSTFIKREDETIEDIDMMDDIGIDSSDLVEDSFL
Experimental: The ability of test compounds to inhibit the phosphorylation of a tyrosine containing polypeptide substrate by the tyrosine kinase enzymes PDGFRα, PDGFRβ and KDR was assessed using conventional ELISA assays.
DNA encoding the PDGFRα, PDGFRβ or KDR receptor cytoplasmic domains may be obtained by total gene synthesis (International Biotechnology Lab., 1987, 5(3), 19-25) or by cloning. The DNA fragments may be expressed in a suitable expression system to obtain polypeptide with tyrosine kinase activity. For example, PDGFRα, PDGFRβ and KDR receptor cytoplasmic domains, obtained by expression of recombinant protein in insect cells, can be shown to display intrinsic tyrosine kinase activity. In the case of the VEGF receptor KDR (Genbank Accession No. L04947), a DNA fragment encoding most of the cytoplasmic domain, commencing with methionine 806 and including the termination codon may be cloned into a baculovirus transplacement vector [for example pAcYM1 (see The Baculovirus Expression System: A Laboratory Guide, L. A. King and R. D. Possee, Chapman and Hall, 1992) or pAc360 or pBlueBacHis (available from Invitrogen Corporation)]. This recombinant construct may be co-transfected into insect cells [for example Spodoptera frugiperda 21(Sf21) or Spodoptera frugiperda 9(Sf9)] with viral DNA (for example Pharmingen BaculoGold) to prepare recombinant baculovirus. […]

KDR tyrosine kinase = molecular target: T3, KDR tyrosine kinase (Homo sapiens, UniProt P35968); assay: In vitro enzyme assay (ELISA), KDR tyrosine kinase; format: biochemical; conditions: Test (a); ATP 8 μM; read-out: IC50 versus KDR tyrosine kinase
T3 construct: encoding most of the cytoplasmic domain, commencing with methionine 806 and including the termination codon; made in house; host or cells: Sf9 insect cells (baculovirus)
T3 sequence (P35968 786-1356 limits assumed): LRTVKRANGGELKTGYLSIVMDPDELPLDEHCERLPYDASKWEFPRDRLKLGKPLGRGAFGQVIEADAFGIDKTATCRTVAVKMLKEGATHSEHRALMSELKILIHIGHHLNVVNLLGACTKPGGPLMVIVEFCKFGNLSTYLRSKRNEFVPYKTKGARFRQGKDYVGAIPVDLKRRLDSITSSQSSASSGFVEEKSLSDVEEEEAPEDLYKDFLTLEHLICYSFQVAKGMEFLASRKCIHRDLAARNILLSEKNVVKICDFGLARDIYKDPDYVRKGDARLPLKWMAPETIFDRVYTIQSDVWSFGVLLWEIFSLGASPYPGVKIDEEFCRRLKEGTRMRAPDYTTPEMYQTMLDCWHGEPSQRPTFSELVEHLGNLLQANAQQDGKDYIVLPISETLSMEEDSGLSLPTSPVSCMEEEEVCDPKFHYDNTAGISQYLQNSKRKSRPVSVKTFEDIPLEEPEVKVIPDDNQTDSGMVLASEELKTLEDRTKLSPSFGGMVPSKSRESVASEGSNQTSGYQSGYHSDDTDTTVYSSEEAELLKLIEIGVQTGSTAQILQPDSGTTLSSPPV
Experimental: For expression, Sf9 cells were infected with plaque-pure KDR recombinant virus and harvested 48 hours later. […] The suspension was centrifuged for 10 minutes at 13,000 rpm at 4° C. The supernatant (stock enzyme solution) was removed and stored in aliquots at −70° C.
as §1
Aliquots (25 μl) of each dilution of test compound were transferred to wells in the washed assay plates. “Maximum” control wells contained diluted DMSO instead of compound. […]
Each kinase enzyme was diluted immediately prior to use with an enzyme diluent comprising 100 mM Hepes pH7.4 buffer, 0.1 mM sodium orthovanadate, 0.1% Triton X-100 and 0.2 mM dithiothreitol. […] The plates were agitated at ambient temperature for about 20 minutes until the optical density value of the “maximum” control wells, as measured at 405 nm using a plate reading spectrophotometer, was approximately 1.0.

phospho-Tyr751 PDGFRβ = molecular target: T4, phospho-Tyr751 PDGFRβ (Homo sapiens, UniProt P09619); assay: In vitro phospho-Tyr751 PDGFRβ ELISA assay in MG63 osteosarcoma cells; format: cell-based; conditions: Test (b); MG63 cells stimulated with PDGFBB; read-out: IC50 versus phospho-Tyr751 PDGFRβ
T4 construct: phosphorylation of PDGFR expressed on MG63 osteosarcoma cells; endogenous in cells; host or cells: MG63 osteosarcoma cells
T4 sequence (P09619 33-1106): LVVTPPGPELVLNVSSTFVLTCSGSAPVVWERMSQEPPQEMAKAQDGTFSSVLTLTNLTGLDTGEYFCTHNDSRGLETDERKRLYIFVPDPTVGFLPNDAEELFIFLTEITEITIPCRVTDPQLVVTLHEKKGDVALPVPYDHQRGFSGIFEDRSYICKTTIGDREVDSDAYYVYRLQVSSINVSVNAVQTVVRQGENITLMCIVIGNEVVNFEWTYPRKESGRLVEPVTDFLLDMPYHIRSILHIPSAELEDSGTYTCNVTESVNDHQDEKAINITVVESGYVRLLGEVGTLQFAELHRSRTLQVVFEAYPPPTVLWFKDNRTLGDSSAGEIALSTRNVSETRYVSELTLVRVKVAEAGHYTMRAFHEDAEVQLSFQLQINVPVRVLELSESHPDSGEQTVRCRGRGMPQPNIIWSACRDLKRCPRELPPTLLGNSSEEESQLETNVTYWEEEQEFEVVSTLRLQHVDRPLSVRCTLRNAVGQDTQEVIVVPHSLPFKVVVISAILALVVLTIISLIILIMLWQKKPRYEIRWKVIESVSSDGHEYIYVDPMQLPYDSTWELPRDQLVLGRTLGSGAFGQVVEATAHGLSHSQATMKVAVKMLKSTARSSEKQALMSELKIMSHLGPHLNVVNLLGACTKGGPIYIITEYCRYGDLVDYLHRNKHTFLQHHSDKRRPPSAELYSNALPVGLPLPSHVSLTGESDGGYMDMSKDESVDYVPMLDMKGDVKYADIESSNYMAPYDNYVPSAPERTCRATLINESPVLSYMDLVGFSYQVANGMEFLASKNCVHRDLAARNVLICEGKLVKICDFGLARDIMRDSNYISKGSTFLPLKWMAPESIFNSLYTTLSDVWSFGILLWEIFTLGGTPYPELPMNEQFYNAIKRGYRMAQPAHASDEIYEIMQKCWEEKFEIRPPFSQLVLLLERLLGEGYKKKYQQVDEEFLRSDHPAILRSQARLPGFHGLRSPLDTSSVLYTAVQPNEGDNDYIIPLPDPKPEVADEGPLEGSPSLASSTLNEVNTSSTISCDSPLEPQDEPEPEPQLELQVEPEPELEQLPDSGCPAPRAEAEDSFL
Experimental: This assay uses a conventional ELISA method to determine the ability of test compounds to inhibit phosphorylation of tyrosine in PDGFRβ.
The cells were incubated overnight at 37° C. with 7.5% CO2 to allow the cells to adhere to the wells.
The cells were incubated for 90 minutes at 37° C. with 7.5% CO2.
The resultant cells were stimulated with PDGFBB using the following procedure. […] The cells were incubated at 37° C. with 7.5% CO2 for 5 minutes. […] The resultant tissue culture plates were shaken for 5 minutes at ambient temperature to ensure full lysis and then frozen at −20° C. until required.
The wells were washed 5 times (1 minute soak each time) with 300 μl per well of PBST. The wells were treated with 50 μl of 3% BSA in PBST at ambient temperature for 1 hour and subsequently washed twice with 300 μl per well of PBST.
The tissue culture plates with frozen cell lysate were allowed to warm to 0° C. […] Aliquots (50 μl) of chemiluminescent substrate solution were added to each of the wells, the plates were agitated for 2 minutes and luminescence was read on a SpectraFluor Plus plate reader (Tecan UK Ltd., Reading, Berkshire, UK). Analysis for each of the compounds was completed by determining a ratio of the ‘phospho antibody’ plate reading to the ‘total antibody’ plate reading for each test sample and these ratios were plotted to determine the IC50 value of each test compound.

pIC50 (PDGFRβ tyrosine kinase): ~7.00
pIC50 (PDGFRα tyrosine kinase): ~6.30
pIC50 (KDR tyrosine kinase): ~5.22
pIC50 (phospho-Tyr751 PDGFRβ): ~8.70
Compound: COc1cc2nccc(Oc3cnn(CC(=O)Nc4cccc(F)c4)c3)c2cc1C#N [Example 1, N-(3-fluorophenyl)-2-[4-(6-cyano-7-methoxyquinolin-4-yloxy)pyrazol-1-yl]acetamide]
